The assay addresses T1, IRAK1 (Homo sapiens, UniProt P51617).
T1 construct: purchased Thermo Fisher Scientific (Life Technologies) SelectScreen
Nature of the assay: SelectScreen Adapta. The format is biochemical. In short, it runs like this:
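SelectScreen broad panel; activity (Z'LYTE, Adapta) plus binding formats. ATP: Km app for CSF1R Z'LYTE; 10 for CAMK1 Adapta. Readout = % per kinase.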

T1 sequence (P51617 whole entry): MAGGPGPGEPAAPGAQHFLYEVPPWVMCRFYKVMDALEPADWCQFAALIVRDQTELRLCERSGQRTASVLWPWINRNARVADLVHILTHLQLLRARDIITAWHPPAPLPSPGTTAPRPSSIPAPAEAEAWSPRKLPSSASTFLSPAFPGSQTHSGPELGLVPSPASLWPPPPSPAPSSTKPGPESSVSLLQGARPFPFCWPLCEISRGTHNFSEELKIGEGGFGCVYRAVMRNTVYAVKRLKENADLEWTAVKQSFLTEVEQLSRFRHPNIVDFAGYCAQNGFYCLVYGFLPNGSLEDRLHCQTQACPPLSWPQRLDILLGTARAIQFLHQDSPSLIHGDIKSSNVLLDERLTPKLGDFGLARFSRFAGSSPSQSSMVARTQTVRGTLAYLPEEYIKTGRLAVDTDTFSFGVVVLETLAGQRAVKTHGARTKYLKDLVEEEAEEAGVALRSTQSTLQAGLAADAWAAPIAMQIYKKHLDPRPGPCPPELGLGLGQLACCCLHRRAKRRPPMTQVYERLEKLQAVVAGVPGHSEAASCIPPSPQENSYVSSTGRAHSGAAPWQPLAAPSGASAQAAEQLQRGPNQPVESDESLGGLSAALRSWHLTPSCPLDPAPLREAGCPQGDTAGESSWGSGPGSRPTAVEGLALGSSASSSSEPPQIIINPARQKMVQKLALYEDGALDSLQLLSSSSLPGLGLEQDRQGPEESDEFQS

Take `CN(C(=O)CN1CCOCC1)c1ccc2sc3c(-c4cccc5c(=O)cc(N6CC7CCC(C6)O7)oc45)cccc3c2c1` [NU5455]: at 1 µM the inhibition was 4%.

One may read the inhibition as the drop in the measured response relative to a control, in per cent. Read a high inhibition as strong suppression.

(Values after PMC6934184, “Selective DNA-PKcs inhibition extends the therapeutic index of localized radiotherapy and chemotherapy” (The Journal of Clinical Investigation, 2019).)
